For 13 compounds, IC50 results are on record in patent US20250236608A1, “EGFR INHIBITORS” (Blueprint Medicines Corporation, priority 2022, published 2025).

Experiment [1] deals with EGFR (d746-750) (Homo sapiens (Human), UniProt P00533, DEL746-750). As to the kind of experiment: Biochemical EGFR inhibition assay, EGFR (d746-750). The settings on record: Caliper mobility shift; 1.0 mM ATP or ATP Km; read-out: Enz EGFR_Exon19-del746-750 IC50.
Experiment [2] concerns the target EGFR L858R (Homo sapiens (Human), UniProt P00533, L858R). As to the kind of experiment: Biochemical EGFR inhibition assay, EGFR L858R. The settings on record: Caliper mobility shift; 1.0 mM ATP or ATP Km; read-out: Enz EGFR_L858R IC50.
For experiment [3], the target named is pEGFR (Tyr1068) in PC-9 cells (Ex19Del) (Homo sapiens (Human), UniProt P00533, DEL746-750). As to the kind of experiment: PC-9 pEGFR AlphaLISA assay. Type of experiment: cell-based. The following applies: 4 hours incubation, p-EGFR (Tyr1068) AlphaLISA, read-out: Ext pEGFR_PC-9 Ex19Del IC50. A digest of the protocol: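 PC-9 cells seeded overnight in phenol-free DMEM with 10% FBS, then treated 4 h at 37°C with a 10-point, 4-fold compound series. Lysates assayed for pEGFR Tyr1068 by AlphaLISA SureFire; IC50 from % inhibition vs log concentration.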
Sequence of pEGFR (Tyr1068) in PC-9 cells (Ex19Del) (P00533 other isoform, or with tags, fused parts or gaps del 746-750): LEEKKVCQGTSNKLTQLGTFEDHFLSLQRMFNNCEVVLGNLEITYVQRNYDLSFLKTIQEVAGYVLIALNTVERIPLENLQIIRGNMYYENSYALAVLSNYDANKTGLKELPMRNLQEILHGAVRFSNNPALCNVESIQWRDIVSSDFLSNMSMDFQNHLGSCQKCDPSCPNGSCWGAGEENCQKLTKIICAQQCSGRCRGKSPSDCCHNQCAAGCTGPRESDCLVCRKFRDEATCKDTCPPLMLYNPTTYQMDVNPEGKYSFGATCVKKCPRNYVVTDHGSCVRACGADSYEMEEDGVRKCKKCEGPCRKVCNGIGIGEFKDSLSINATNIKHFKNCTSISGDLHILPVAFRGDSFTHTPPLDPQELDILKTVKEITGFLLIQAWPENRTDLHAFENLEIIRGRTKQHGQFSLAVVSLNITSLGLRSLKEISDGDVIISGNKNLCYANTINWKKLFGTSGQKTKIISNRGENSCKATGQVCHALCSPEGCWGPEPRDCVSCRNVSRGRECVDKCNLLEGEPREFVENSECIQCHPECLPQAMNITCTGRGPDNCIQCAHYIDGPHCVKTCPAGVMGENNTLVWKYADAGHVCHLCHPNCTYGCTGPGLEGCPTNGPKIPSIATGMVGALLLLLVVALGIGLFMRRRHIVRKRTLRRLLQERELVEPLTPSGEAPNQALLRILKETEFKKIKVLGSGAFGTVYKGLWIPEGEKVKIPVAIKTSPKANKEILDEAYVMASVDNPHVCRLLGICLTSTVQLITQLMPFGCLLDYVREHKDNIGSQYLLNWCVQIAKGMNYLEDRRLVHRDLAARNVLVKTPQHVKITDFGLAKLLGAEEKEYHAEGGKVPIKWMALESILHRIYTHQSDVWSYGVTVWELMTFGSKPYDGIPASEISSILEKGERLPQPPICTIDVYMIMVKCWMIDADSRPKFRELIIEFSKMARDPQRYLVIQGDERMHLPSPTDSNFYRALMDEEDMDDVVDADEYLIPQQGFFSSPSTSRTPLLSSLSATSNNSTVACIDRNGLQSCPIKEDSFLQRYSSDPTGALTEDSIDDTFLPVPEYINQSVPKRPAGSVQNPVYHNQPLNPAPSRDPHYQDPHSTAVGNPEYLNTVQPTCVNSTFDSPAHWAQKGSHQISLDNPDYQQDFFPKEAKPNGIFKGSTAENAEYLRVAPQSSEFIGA
On the technique in general: Alpha assays give light when donor and acceptor beads are brought close together.

Sequence of EGFR L858R (P00533 25-1210 L858R): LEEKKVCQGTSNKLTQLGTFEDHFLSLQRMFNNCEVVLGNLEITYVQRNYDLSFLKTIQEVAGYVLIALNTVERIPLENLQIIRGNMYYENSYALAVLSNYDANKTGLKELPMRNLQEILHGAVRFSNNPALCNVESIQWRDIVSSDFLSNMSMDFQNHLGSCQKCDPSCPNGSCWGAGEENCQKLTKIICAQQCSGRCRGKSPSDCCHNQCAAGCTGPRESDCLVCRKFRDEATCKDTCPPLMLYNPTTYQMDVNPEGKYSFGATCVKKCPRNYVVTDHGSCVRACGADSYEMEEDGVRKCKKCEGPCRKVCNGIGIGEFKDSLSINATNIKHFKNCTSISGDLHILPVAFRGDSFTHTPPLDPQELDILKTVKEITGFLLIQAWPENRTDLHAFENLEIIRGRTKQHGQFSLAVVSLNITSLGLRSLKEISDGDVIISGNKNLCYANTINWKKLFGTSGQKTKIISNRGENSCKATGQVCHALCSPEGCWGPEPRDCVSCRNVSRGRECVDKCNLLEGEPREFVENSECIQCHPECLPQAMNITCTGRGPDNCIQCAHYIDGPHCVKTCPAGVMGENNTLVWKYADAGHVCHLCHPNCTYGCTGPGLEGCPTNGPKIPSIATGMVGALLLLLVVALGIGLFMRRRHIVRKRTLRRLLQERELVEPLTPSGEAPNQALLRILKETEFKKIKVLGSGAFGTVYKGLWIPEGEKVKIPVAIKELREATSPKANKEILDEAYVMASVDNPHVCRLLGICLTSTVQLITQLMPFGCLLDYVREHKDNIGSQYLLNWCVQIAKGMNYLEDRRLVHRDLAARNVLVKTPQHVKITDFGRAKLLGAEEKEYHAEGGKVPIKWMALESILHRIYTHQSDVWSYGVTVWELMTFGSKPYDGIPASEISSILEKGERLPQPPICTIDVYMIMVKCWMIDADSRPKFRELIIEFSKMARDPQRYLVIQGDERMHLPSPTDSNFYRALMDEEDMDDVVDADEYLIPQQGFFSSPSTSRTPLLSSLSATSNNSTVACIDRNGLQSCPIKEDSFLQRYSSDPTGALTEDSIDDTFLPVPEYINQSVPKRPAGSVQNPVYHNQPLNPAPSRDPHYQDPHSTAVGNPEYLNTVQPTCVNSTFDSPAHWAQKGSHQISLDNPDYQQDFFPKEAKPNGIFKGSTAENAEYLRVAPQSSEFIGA
Sequence of EGFR (d746-750) (P00533 other isoform, or with tags, fused parts or gaps del 1-694/del 746-750 limits assumed): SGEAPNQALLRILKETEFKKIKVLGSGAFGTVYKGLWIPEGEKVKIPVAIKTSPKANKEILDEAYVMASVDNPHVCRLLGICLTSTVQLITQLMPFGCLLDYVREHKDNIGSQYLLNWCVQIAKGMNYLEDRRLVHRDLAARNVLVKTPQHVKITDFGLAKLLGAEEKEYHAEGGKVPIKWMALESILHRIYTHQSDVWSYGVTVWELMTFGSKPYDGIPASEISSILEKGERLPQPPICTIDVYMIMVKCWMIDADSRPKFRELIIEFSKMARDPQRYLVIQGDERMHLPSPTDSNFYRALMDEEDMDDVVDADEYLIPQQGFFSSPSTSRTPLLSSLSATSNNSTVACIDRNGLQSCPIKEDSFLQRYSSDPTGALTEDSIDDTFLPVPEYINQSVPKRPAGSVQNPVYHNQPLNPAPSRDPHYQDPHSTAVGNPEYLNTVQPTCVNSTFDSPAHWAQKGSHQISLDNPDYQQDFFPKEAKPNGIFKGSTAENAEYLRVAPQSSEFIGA

Consider `COc1cc2ncnc(-c3cn(C)nc3-c3ccc(F)cc3)c2nc1NC(=O)[C@@]12COC[C@@H]1C2` (single isomer, unassigned) [Example 382, (1R,5R)—N-(4-(3-(4-fluorophenyl)-1-methyl-1H-pyrazol-4-yl)-7-methoxypyrido[3,2-d]pyrimidin-6-yl)-3-oxabicyclo[3.1.0]hexane-1-carboxamide or (1S,5S)—N-(4-(3-(4-fluorophenyl)-1-methyl-1H-pyrazol-4-yl)-7-methoxypyrido[3,2-d]pyrimidin-6-yl)-3-oxabicyclo[3.1.0]hexane-1-carboxamide], for which the IC50 (commonly the concentration that inhibits the measured activity by half) in experiment [1] came out at 0.6 nM; in experiment [2], 2.4 nM; in experiment [3] it was 1.6 nM.

Consider `CCOc1cc2ncnc(-c3cn(C)nc3-c3ccc(F)cc3)c2nc1NC(=O)[C@]12COC[C@H]1C2` (single isomer, unassigned) [Example 384, (1S,5S)—N-(7-ethoxy-4-(3-(4-fluorophenyl)-1-methyl-1H-pyrazol-4-yl)pyrido[3,2-d]pyrimidin-6-yl)-3-oxabicyclo[3.1.0]hexane-1-carboxamide or (1R,5R)—N-(7-ethoxy-4-(3-(4-fluorophenyl)-1-methyl-1H-pyrazol-4-yl)pyrido[3,2-d]pyrimidin-6-yl)-3-oxabicyclo[3.1.0]hexane-1-carboxamide], for which the IC50 in experiment [1] was determined as 0.3 nM; in experiment [2] it was 1.1 nM; in experiment [3], 1.1 nM.

For the compound `CCOc1cc2ncnc(-c3cn(C)nc3-c3ccc(F)cc3)c2nc1NC(=O)[C@@]12COC[C@@H]1C2` (single isomer, unassigned) [Example 385, (1R,5R)—N-(7-ethoxy-4-(3-(4-fluorophenyl)-1-methyl-1H-pyrazol-4-yl)pyrido[3,2-d]pyrimidin-6-yl)-3-oxabicyclo[3.1.0]hexane-1-carboxamide or (1S,5S)—N-(7-ethoxy-4-(3-(4-fluorophenyl)-1-methyl-1H-pyrazol-4-yl)pyrido[3,2-d]pyrimidin-6-yl)-3-oxabicyclo[3.1.0]hexane-1-carboxamide], the half-inhibitory concentration (IC50) stood at 0.4 nM in experiment [1], 1.7 nM in experiment [2] and 0.7 nM in experiment [3].

For the compound `COc1cc2ncnc(-c3cn(C)nc3-c3ccccc3F)c2nc1NC(=O)[C@]12COC[C@H]1C2` (single isomer, unassigned) [Example 386, (1S,5S)—N-(4-(3-(2-fluorophenyl)-1-methyl-1H-pyrazol-4-yl)-7-methoxypyrido[3,2-d]pyrimidin-6-yl)-3-oxabicyclo[3.1.0]hexane-1-carboxamide or (1R,5R)—N-(4-(3-(2-fluorophenyl)-1-methyl-1H-pyrazol-4-yl)-7-methoxypyrido[3,2-d]pyrimidin-6-yl)-3-oxabicyclo[3.1.0]hexane-1-carboxamide], the IC50 stood at 1.1 nM in experiment [1], 2.1 nM in experiment [2] and 1.7 nM in experiment [3].

Turning to `COc1cc2ncnc(-c3cn(C)nc3-c3ccccc3F)c2nc1NC(=O)[C@@]12COC[C@@H]1C2` (single isomer, unassigned) [Example 387, (1R,5R)—N-(4-(3-(2-fluorophenyl)-1-methyl-1H-pyrazol-4-yl)-7-methoxypyrido[3,2-d]pyrimidin-6-yl)-3-oxabicyclo[3.1.0]hexane-1-carboxamide or (1S,5S)—N-(4-(3-(2-fluorophenyl)-1-methyl-1H-pyrazol-4-yl)-7-methoxypyrido[3,2-d]pyrimidin-6-yl)-3-oxabicyclo[3.1.0]hexane-1-carboxamide], the values for the IC50 in experiment [1], in experiment [2] and in experiment [3] were 0.9 nM, 2 nM and 1.5 nM, respectively.

Regarding `CCn1cc(-c2ncnc3cc(OC)c(NC(=O)[C@]45COC[C@H]4C5)nc23)c(-c2ccccc2)n1` (single isomer, unassigned) [Example 388, (1S,5S)—N-(4-(1-ethyl-3-phenyl-1H-pyrazol-4-yl)-7-methoxypyrido[3,2-d]pyrimidin-6-yl)-3-oxabicyclo[3.1.0]hexane-1-carboxamide or (1R,5R)—N-(4-(1-ethyl-3-phenyl-1H-pyrazol-4-yl)-7-methoxypyrido[3,2-d]pyrimidin-6-yl)-3-oxabicyclo[3.1.0]hexane-1-carboxamide], the IC50 is 0.5 nM in experiment [1], 4.8 nM in experiment [2] and 0.4 nM in experiment [3].

As to `CCn1cc(-c2ncnc3cc(OC)c(NC(=O)[C@@]45COC[C@@H]4C5)nc23)c(-c2ccccc2)n1` (single isomer, unassigned) [Example 389, (1R,5R)—N-(4-(1-ethyl-3-phenyl-1H-pyrazol-4-yl)-7-methoxypyrido[3,2-d]pyrimidin-6-yl)-3-oxabicyclo[3.1.0]hexane-1-carboxamide or (1S,5S)—N-(4-(1-ethyl-3-phenyl-1H-pyrazol-4-yl)-7-methoxypyrido[3,2-d]pyrimidin-6-yl)-3-oxabicyclo[3.1.0]hexane-1-carboxamide], the IC50 in experiment [1] is 0.7 nM; in experiment [2], 6.4 nM; in experiment [3], 0.4 nM.

Consider `COc1cc2ncnc(-c3cn(C)nc3-c3ccccc3)c2nc1NC(=O)[C@@]12C[C@@H]1CN(C)C2` (single isomer, unassigned) [Example 392, (1S,5S)—N-(7-methoxy-4-(1-methyl-3-phenyl-1H-pyrazol-4-yl)pyrido[3,2-d]pyrimidin-6-yl)-3-methyl-3-azabicyclo[3.1.0]hexane-1-carboxamide or (1R,5R)—N-(7-methoxy-4-(1-methyl-3-phenyl-1H-pyrazol-4-yl)pyrido[3,2-d]pyrimidin-6-yl)-3-methyl-3-azabicyclo[3.1.0]hexane-1-carboxamide], for which the 50% inhibitory concentration (IC50) was 2.2 nM in experiment [1], 6.1 nM in experiment [2] and 5.9 nM in experiment [3].

For the compound `COc1cc2ncnc(-c3cn(C)nc3-c3ccccc3)c2nc1NC(=O)[C@]12C[C@H]1CN(C)C2` (single isomer, unassigned) [Example 393, (1R,5R)—N-(7-methoxy-4-(1-methyl-3-phenyl-1H-pyrazol-4-yl)pyrido[3,2-d]pyrimidin-6-yl)-3-methyl-3-azabicyclo[3.1.0]hexane-1-carboxamide or (1S,5S)—N-(7-methoxy-4-(1-methyl-3-phenyl-1H-pyrazol-4-yl)pyrido[3,2-d]pyrimidin-6-yl)-3-methyl-3-azabicyclo[3.1.0]hexane-1-carboxamide], the IC50 is 0.9 nM in experiment [1], 2.1 nM in experiment [2] and 3.5 nM in experiment [3].

Regarding `COc1cc2ncnc(-c3cn(C)nc3-c3ccccc3)c2nc1NC(=O)[C@@]1(C(F)(F)F)CCN(C)C1` (single isomer, unassigned) [Example 394, (R)—N-(7-methoxy-4-(1-methyl-3-phenyl-1H-pyrazol-4-yl)pyrido[3,2-d]pyrimidin-6-yl)-1-methyl-3-(trifluoromethyl) pyrrolidine-3-carboxamide or (S)—N-(7-methoxy-4-(1-methyl-3-phenyl-1H-pyrazol-4-yl)pyrido[3,2-d]pyrimidin-6-yl)-1-methyl-3-(trifluoromethyl) pyrrolidine-3-carboxamide], the IC50 in experiment [1] stood at 2.7 nM; in experiment [2], 6.9 nM; in experiment [3] it was 9.3 nM.

As for `COc1cc2ncnc(-c3cn(C)nc3-c3ccccc3)c2nc1NC(=O)[C@]1(C(F)(F)F)CCN(C)C1` (single isomer, unassigned) [Example 395, (S)—N-(7-methoxy-4-(1-methyl-3-phenyl-1H-pyrazol-4-yl)pyrido[3,2-d]pyrimidin-6-yl)-1-methyl-3-(trifluoromethyl) pyrrolidine-3-carboxamide or (R)—N-(7-methoxy-4-(1-methyl-3-phenyl-1H-pyrazol-4-yl)pyrido[3,2-d]pyrimidin-6-yl)-1-methyl-3-(trifluoromethyl) pyrrolidine-3-carboxamide], the figures for the IC50 in experiment [1], in experiment [2] and in experiment [3] were 1.2 nM, 3.1 nM and 5.3 nM, respectively.

With `COc1cc2ncnc(-c3cn(CC(F)F)nc3-c3ccccc3)c2nc1NC(=O)[C@]12C[C@H]1CN(C)C2` (single isomer, unassigned) [Example 396, (1R,5R)—N-(4-(1-(2,2-difluoroethyl)-3-phenyl-1H-pyrazol-4-yl)-7-methoxypyrido[3,2-d]pyrimidin-6-yl)-3-methyl-3-azabicyclo[3.1.0]hexane-1-carboxamide or (1S,5S)—N-(4-(1-(2,2-difluoroethyl)-3-phenyl-1H-pyrazol-4-yl)-7-methoxypyrido[3,2-d]pyrimidin-6-yl)-3-methyl-3-azabicyclo[3.1.0]hexane-1-carboxamide], the results for the IC50 in experiment [1], in experiment [2] and in experiment [3] were 1.1 nM, 1.7 nM and 0.5 nM, respectively.

For `COc1cc2ncnc(-c3cn(CC(F)F)nc3-c3ccccc3)c2nc1NC(=O)[C@@]12C[C@@H]1CN(C)C2` (single isomer, unassigned) [Example 397, (1R,5R)—N-(4-(1-(2,2-difluoroethyl)-3-phenyl-1H-pyrazol-4-yl)-7-methoxypyrido[3,2-d]pyrimidin-6-yl)-3-methyl-3-azabicyclo[3.1.0]hexane-1-carboxamide or (1S,5S)—N-(4-(1-(2,2-difluoroethyl)-3-phenyl-1H-pyrazol-4-yl)-7-methoxypyrido[3,2-d]pyrimidin-6-yl)-3-methyl-3-azabicyclo[3.1.0]hexane-1-carboxamide], the figures for the IC50 in experiment [1], in experiment [2] and in experiment [3] were 1 nM, 2.3 nM and 1.6 nM, respectively.
